{"source": "patent US12532889B2", "about": "“Herbicidal compositions comprising glufosinate” (BASF SE, priority 2023, dated 2026)", "assay_in_all_cases": "Post-emergence application in field trials (Example A)", "assay_type_in_all_cases": "in vivo", "key": {"[1]": {"test_system": "AMAPA (Amaranthus palmeri)", "conditions": "Table 1.27, AMAPA height 30 cm, 21 DAT, water 200 l/ha", "method": "(§1) In the examples below, using the method of S. R. Colby (1967) “Calculating synergistic and antagonistic responses of herbicide combinations”, Weeds 15, p. 22ff., the value E, which is expected if the activity of the individual active compounds is only additive, was calculated:\n(§2) [formula] • where • X=percent activity using active herbicide A at an application rate a; • Y=percent activity using active herbicide B (e.g. glufosinate) at an application rate b; • E=expected activity (in %) by A+B at application rates a+b.\n(§3) If the value found experimentally is higher than the value E calculated according to Colby, a synergistic effect is present.\n(§4) On field test sites, natural weed infestation or seeded weeds were treated post-emergence of the weeds.\n(§5) In the field trials, the weeds were treated as indicated below.\n(§6) In the following experiments, the herbicidal activity for the individual herbicidal compositions (solo and mixture applications) was assessed at the indicated days after treatment (DAT). The assessments for the damage on undesired weeds caused by the composition was carried out using a scale from 0 to 100%, compared to the untreated control plants. Here, 0 means no damage and 100 means complete destruction of the plants."}, "BIDPI (Bidens pilosa)": {"test_system": "BIDPI (Bidens pilosa)", "conditions": "Table 1.14; BIDPI height 20-45 cm; A-1 50, B-2 400 g ai/ha; 21 DAT; water 100 l/ha", "method": "as §1, §2, §3, §4, §5, §6"}, "[2]": {"test_system": "BRAPL (Brachiaria plantaginea)", "conditions": "BRAPL growth stage 24, A-1 50, B-2 400 g ai/ha, water 200 l/ha", "method": "as §1, §2, §3, §4, §5, §6"}, "CNDSS (Conyza sp.)": {"test_system": "CNDSS (Conyza sp.)", "conditions": "Table 1.5; CNDSS growth stage 26-59, height 15-55 cm; A-1 50, B-2 600 g ai/ha; 14 DAT; water 200 l/ha", "method": "as §1, §2, §3, §4, §5, §6"}, "CYPIR (Cyperus iria)": {"test_system": "CYPIR (Cyperus iria)", "conditions": "Table 2.1, CYPIR growth stage 13-14, height 3-5 cm, 14 DAT, water 300 l/ha", "method": "as §1, §2, §3, §4, §5, §6"}, "[3]": {"test_system": "DIGSA (Digitaria sanguinalis)", "conditions": "for % Herbicidal activity: B-2 400 g ai/ha, height 10-15 cm; for % herbicidal activity: Table 4.1, DIGSA height 2-8 cm, water 140 l/ha", "method": "as §1, §2, §3, §4, §5, §6"}, "[4]": {"test_system": "ECHCG (Echinocloa crus-galli)", "conditions": "B-2 400 g ai/ha, growth stage 23-30, height 15-20 cm", "method": "as §1, §2, §3, §4, §5, §6"}, "GALAP (Galium aparine)": {"test_system": "GALAP (Galium aparine)", "conditions": "Table 3.1; GALAP growth stage 11-16, height 2-20 cm; A-1 18, B-2 500 g ai/ha; 28 DAT; water 100 l/ha", "method": "as §1, §2, §3, §4, §5, §6"}, "[5]": {"test_system": "HORVW (Hordeum vulgare (winter barley))", "conditions": "B-2 400 g ai/ha, growth stage 23-29, height 20-25 cm", "method": "as §1, §2, §3, §4, §5, §6"}, "IPOTR (Ipomoea triloba)": {"test_system": "IPOTR (Ipomoea triloba)", "conditions": "21 DAT", "method": "as §1, §2, §3, §4, §5, §6"}, "[6]": {"test_system": "LOLMU (Lolium multiflorum)", "method": "as §1, §2, §3, §4, §5, §6"}, "ZEAMX (Zea mays)": {"test_system": "ZEAMX (Zea mays)", "method": "as §1, §2, §3, §4, §5, §6"}, "[7]": {"conditions": "7 DAT, B-2 400 g ai/ha, growth stage 22-25, height 20-25 cm"}}, "note": "Values joined by “and” are separate entries in the source; they are usually repeats but may differ in a detail not shown here. Equal values may be shown once."}
{"smiles": "CP(=O)(O)CCC(N)C(=O)O", "note": "(centres unmarked) [B-2, glufosinate-ammonium]", "values": [{"measurement": "% herbicidal activity", "setting": "[1]; A-1 12.5, B-2 400 g ai/ha", "value": 20, "unit": "%"}, {"measurement": "% herbicidal activity", "setting": "[1]; A-1 25, B-2 400 g ai/ha", "value": 20, "unit": "%"}, {"measurement": "% herbicidal activity", "setting": "BIDPI (Bidens pilosa)", "value": 55, "unit": "%"}, {"measurement": "% herbicidal activity", "setting": "[2]; Table 1.18, 21 DAT", "value": 18, "unit": "%"}, {"measurement": "% herbicidal activity", "setting": "[2]; Table 1.4, 14 DAT", "value": 55, "unit": "%"}, {"measurement": "% herbicidal activity", "setting": "CNDSS (Conyza sp.)", "value": 90, "unit": "%"}, {"measurement": "% herbicidal activity", "setting": "CYPIR (Cyperus iria); A-1 12.5, B-2 500 g ai/ha", "value": 77, "unit": "%"}, {"measurement": "% herbicidal activity", "setting": "CYPIR (Cyperus iria); A-1 25, B-2 500 g ai/ha", "value": 77, "unit": "%"}, {"measurement": "% Herbicidal activity", "setting": "[3]; 20 DAT, growth stage 21-22", "value": 20, "unit": "%"}, {"measurement": "% Herbicidal activity", "setting": "[3]; 21 DAT, growth stage 22", "value": 75, "unit": "%"}, {"measurement": "% Herbicidal activity", "setting": "[3]; 41 DAT, growth stage 22", "value": 55, "unit": "%"}, {"measurement": "% herbicidal activity", "setting": "[3]; A-1 12.5, B-2 655 g ai/ha, 21 DAT", "value": 49, "unit": "%"}, {"measurement": "% herbicidal activity", "setting": "[3]; A-1 25, B-2 655 g ai/ha, 21 DAT", "value": 49, "unit": "%"}, {"measurement": "% herbicidal activity", "setting": "[3]; A-1 50, B-2 655 g ai/ha, 21 DAT", "value": 49, "unit": "%"}, {"measurement": "% Herbicidal activity", "setting": "[4]; 7 DAT", "value": 60, "unit": "%"}, {"measurement": "% herbicidal activity", "setting": "[4]; 7 DAT", "value": "40% and 60%"}, {"measurement": "% Herbicidal activity", "setting": "[4]; 21 DAT", "value": 60, "unit": "%"}, {"measurement": "% herbicidal activity", "setting": "[4]; 21 DAT", "value": 60, "unit": "%"}, {"measurement": "% Herbicidal activity", "setting": "[4]; 28 DAT", "value": 60, "unit": "%"}, {"measurement": "% herbicidal activity", "setting": "GALAP (Galium aparine)", "value": 27, "unit": "%"}, {"measurement": "% Herbicidal activity", "setting": "[5]; 7 DAT", "value": 60, "unit": "%"}, {"measurement": "% Herbicidal activity", "setting": "[5]; 21 DAT", "value": 30, "unit": "%"}, {"measurement": "% herbicidal activity", "setting": "[5]; 21 DAT", "value": 40, "unit": "%"}, {"measurement": "% herbicidal activity", "setting": "IPOTR (Ipomoea triloba); Table 1.11, A-1 25, B-2 400 g ai/ha, water 100 l/ha", "value": 60, "unit": "%"}, {"measurement": "% herbicidal activity", "setting": "IPOTR (Ipomoea triloba); Table 1.16, A-1 25, B-2 400 g ai/ha, water 200 l/ha", "value": 68, "unit": "%"}, {"measurement": "% Herbicidal activity", "setting": "[6]; [7]", "value": 70, "unit": "%"}, {"measurement": "% herbicidal activity", "setting": "[6]; [7]", "value": 50, "unit": "%"}, {"measurement": "% herbicidal activity", "setting": "[6]; 21 DAT, B-2 400 g ai/ha, growth stage 22-25, height 20-25 cm", "value": 30, "unit": "%"}, {"measurement": "% Herbicidal activity", "setting": "[6]; 28 DAT, B-2 400 g ai/ha, growth stage 22-25, height 20-25 cm", "value": 40, "unit": "%"}, {"measurement": "% herbicidal activity", "setting": "[6]; Table 1.28, LOLMU growth stage 11-23, height 5-10 cm, A-1 25, B-2 400 g ai/ha, 28 DAT, water 200 l/ha", "value": 68, "unit": "%"}, {"measurement": "% herbicidal activity", "setting": "ZEAMX (Zea mays); 7 DAT, B-2 400 g ai/ha, growth stage 15-16, height 50-60 cm", "value": 75, "unit": "%"}, {"measurement": "% Herbicidal activity", "setting": "ZEAMX (Zea mays); 21 DAT, B-2 400 g ai/ha, growth stage 15-16, height 27-33 cm", "value": 65, "unit": "%"}, {"measurement": "% herbicidal activity", "setting": "ZEAMX (Zea mays); 21 DAT, B-2 400 g ai/ha, growth stage 15-16, height 50-60 cm", "value": 75, "unit": "%"}, {"measurement": "% herbicidal activity", "setting": "ZEAMX (Zea mays); 28 DAT, B-2 400 g ai/ha, growth stage 15-16, height 50-60 cm", "value": 40, "unit": "%"}, {"measurement": "% herbicidal activity", "setting": "ZEAMX (Zea mays); Table 1.12, ZEAMX volunteer corn, A-1 50, B-2 400 g ai/ha, 21 DAT, water 100 l/ha", "value": 47, "unit": "%"}]}
